Results from US10344060B2 (priority 2013, dated 2019).

Legend:
Experiment in all cases: cell-based
hNav1.7 = hNav1.7 (Homo sapiens, UniProt Q15858); settings: read-out: IC50 (μM) Nav1.7
hNav1.5 = hNav1.5 (Homo sapiens, UniProt Q14524); settings: IonWorks Quattro; Table 6; read-out: IC50 (μM) Nav1.5
hNav1.4 = hNav1.4 (Homo sapiens, UniProt P35499); format: cell-based; settings: Table 6; for IC50: IonWorks Quattro, read-out: IC50 (μM) Nav1.4; for Nav1.4/Nav1.7: ratio of IonWorks Quattro IC50 values
hNav1.3 = hNav1.3 (Homo sapiens, UniProt Q9NY46); settings: IonWorks Quattro; Table 6; read-out: IC50 (μM) Nav1.3

Chain of hNav1.7 (Q15858 whole entry): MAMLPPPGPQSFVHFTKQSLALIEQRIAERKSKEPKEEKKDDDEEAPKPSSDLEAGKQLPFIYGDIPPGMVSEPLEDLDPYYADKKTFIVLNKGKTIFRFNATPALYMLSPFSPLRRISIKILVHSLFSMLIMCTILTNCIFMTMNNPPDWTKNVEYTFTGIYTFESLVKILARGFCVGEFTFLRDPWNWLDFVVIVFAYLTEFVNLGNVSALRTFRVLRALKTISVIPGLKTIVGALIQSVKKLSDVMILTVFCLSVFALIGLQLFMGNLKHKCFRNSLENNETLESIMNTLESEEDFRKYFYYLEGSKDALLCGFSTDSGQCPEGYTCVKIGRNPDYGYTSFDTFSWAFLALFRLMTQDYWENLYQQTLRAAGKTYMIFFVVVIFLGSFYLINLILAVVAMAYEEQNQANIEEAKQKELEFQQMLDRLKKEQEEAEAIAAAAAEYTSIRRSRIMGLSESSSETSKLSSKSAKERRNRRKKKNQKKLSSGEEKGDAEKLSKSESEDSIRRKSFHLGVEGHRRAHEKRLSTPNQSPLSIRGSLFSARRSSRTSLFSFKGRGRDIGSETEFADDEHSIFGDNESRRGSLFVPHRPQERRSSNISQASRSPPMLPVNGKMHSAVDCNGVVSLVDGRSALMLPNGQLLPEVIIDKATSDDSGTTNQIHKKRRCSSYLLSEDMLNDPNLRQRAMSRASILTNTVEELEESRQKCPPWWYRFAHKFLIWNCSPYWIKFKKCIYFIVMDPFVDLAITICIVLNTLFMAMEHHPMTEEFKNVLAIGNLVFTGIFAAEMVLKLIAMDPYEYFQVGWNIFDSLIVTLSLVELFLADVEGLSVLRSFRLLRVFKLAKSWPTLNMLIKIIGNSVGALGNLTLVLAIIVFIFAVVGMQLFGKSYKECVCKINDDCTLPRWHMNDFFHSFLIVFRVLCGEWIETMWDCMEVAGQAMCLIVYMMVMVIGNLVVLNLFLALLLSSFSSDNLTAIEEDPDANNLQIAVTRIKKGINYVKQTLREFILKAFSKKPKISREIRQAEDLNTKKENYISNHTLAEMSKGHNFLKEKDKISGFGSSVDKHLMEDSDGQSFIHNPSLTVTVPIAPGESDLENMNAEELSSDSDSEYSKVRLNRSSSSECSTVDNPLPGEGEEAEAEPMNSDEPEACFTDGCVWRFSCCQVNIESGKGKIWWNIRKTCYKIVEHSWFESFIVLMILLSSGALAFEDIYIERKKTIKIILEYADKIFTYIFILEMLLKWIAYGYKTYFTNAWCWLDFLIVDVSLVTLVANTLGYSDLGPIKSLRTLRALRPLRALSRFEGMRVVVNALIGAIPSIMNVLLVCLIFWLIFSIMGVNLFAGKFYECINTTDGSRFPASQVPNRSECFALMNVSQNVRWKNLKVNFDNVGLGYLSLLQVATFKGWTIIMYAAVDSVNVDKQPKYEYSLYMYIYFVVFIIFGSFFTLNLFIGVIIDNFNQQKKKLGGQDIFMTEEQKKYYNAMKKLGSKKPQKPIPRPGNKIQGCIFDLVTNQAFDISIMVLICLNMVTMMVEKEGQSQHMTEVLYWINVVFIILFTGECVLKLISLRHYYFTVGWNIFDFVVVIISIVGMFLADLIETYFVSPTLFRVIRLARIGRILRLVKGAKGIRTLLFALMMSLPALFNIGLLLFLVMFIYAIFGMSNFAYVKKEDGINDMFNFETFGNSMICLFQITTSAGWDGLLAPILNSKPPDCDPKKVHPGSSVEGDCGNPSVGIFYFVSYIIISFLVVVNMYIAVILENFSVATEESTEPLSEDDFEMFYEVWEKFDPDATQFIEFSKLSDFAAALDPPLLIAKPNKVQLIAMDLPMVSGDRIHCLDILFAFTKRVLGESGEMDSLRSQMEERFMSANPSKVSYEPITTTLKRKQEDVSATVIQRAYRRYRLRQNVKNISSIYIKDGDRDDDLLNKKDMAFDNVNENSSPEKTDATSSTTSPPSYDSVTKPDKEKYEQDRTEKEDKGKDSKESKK
Chain of hNav1.5 (Q14524 whole entry): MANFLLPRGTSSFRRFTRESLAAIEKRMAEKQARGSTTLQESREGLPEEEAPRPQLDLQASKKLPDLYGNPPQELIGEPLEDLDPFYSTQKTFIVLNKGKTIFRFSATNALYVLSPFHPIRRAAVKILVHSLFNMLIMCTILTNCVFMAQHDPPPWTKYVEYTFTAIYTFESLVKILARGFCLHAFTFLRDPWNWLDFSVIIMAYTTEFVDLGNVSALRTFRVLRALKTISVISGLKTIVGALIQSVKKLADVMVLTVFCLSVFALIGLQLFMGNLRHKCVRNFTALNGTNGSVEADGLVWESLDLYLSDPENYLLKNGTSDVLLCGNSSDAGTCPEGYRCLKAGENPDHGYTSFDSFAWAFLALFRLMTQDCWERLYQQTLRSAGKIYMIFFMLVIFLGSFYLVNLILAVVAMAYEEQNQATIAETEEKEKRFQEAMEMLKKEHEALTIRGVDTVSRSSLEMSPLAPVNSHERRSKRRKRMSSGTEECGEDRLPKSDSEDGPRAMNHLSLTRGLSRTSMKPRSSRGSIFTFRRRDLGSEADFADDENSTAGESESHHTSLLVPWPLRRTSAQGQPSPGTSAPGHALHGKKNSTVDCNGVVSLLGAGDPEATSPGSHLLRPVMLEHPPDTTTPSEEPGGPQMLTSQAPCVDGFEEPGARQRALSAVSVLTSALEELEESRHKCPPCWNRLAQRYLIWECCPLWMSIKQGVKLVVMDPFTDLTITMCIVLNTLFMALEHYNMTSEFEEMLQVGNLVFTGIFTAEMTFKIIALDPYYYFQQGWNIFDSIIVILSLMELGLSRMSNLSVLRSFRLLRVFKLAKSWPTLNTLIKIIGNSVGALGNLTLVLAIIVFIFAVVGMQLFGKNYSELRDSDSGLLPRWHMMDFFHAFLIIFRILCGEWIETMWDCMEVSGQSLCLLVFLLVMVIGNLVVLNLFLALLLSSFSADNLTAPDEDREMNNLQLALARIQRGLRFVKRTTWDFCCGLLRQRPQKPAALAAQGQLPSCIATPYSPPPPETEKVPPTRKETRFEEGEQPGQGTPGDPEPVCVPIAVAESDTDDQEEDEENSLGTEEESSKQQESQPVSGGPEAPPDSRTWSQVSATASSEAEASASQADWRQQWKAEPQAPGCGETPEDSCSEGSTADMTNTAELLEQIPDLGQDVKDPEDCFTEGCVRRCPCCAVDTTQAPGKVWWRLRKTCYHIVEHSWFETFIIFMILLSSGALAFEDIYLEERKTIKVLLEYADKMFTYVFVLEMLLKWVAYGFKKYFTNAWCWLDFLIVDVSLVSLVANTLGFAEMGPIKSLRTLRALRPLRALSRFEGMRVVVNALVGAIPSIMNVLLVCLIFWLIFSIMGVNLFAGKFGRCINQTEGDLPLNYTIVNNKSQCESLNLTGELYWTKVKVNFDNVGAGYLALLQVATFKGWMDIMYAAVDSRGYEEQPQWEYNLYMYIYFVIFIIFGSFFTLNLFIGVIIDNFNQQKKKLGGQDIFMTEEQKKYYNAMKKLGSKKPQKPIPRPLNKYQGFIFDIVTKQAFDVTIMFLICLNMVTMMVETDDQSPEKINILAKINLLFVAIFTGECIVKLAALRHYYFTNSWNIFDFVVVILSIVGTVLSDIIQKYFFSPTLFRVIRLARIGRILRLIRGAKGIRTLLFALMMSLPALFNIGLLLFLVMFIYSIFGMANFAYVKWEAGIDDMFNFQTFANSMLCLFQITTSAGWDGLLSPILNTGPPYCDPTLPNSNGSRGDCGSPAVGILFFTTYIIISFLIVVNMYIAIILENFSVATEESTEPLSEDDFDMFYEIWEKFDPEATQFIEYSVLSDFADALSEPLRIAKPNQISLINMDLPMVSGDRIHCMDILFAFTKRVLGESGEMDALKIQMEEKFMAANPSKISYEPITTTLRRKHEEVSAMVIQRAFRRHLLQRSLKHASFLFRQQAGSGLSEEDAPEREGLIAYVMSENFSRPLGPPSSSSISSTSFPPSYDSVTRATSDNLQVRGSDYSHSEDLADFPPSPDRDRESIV

Row | SMILES | IC50 (hNav1.7) [µM] | IC50 (hNav1.5) [µM] | IC50 (hNav1.4) [µM] | Nav1.4/Nav1.7 (hNav1.4) | IC50 (hNav1.3) [µM]
1 | CC[C@H](C)[C@H](NC(=O)[C@@H](NC(=O)[C@H](CCCCN)NC(=O)[C@H](CCCNC(=N)N)NC(=O)[C@@H]1CSSC[C@@H]2NC(=O)[C@H](C)NC(=O)[C@H](CCCNC(=N)N)NC(=O)[C@H](CCCNC(=N)N)NC(=O)[C@H](CO)NC(=O)[C@H](CC(=O)O)NC(=O)[C@@H]3CSSC[C@H](NC(=O)[C@H](CCCNC(=N)N)NC(=O)[C@H](CC(C)C)NC(=O)CNC(=O)[C@H](CCC(=O)O)NC(=O)[C@H](CSSC[C@H](NC(=O)[C@@H](N)Cc4ccc(O)cc4)C(=O)N[C@@H](CCC(N)=O)C(=O)N[C@@H](CCCCN)C(=O)N[C@@H](Cc4c[nH]c5ccccc45)C(=O)N[C@@H](CCSC)C(=O)N[C@@H](Cc4c[nH]c5ccccc45)C(=O)N[C@@H]([C@@H](C)O)C(=O)N3)NC2=O)C(=O)N[C@@H](CCCCN)C(=O)N[C@@H](CC(C)C)C(=O)N[C@@H](Cc2c[nH]c3ccccc23)C(=O)N1)[C@@H](C)CC)C(N)=O [compound 99] | 0.008 | 2.5 | 0.15 | 19 | 0.05
2 | CC[C@H](C)[C@H](NC(=O)[C@@H](NC(=O)[C@H](CCCCN)NC(=O)[C@H](CCCNC(=N)N)NC(=O)[C@@H]1CSSC[C@@H]2NC(=O)[C@H](C)NC(=O)[C@H](CCCNC(=N)N)NC(=O)[C@H](CCCCN)NC(=O)[C@H](CO)NC(=O)[C@H](CC(=O)O)NC(=O)[C@@H]3CSSC[C@H](NC(=O)[C@H](CCCNC(=N)N)NC(=O)[C@H](CC(C)C)NC(=O)CNC(=O)[C@H](CCC(=O)O)NC(=O)[C@H](CSSC[C@H](NC(=O)[C@@H](N)Cc4ccc(O)cc4)C(=O)N[C@@H](CCC(N)=O)C(=O)N[C@@H](CCCCN)C(=O)N[C@@H](Cc4c[nH]c5ccccc45)C(=O)N[C@@H](C)C(=O)N[C@@H](Cc4c[nH]c5ccccc45)C(=O)N[C@@H]([C@@H](C)O)C(=O)N3)NC2=O)C(=O)N[C@@H](CCCCN)C(=O)N[C@@H](CC(C)C)C(=O)N[C@@H](Cc2c[nH]c3ccccc23)C(=O)N1)[C@@H](C)CC)C(N)=O [compound 7] | 0.094 | > 5 | 0.28 | 3 | 0.16
3 | CC[C@H](C)[C@H](NC(=O)[C@H](CCCCN)NC(=O)[C@H](CCCCN)NC(=O)[C@H](CCCNC(=N)N)NC(=O)[C@@H]1CSSC[C@@H]2NC(=O)[C@H](C)NC(=O)[C@H](CCCNC(=N)N)NC(=O)[C@H](CCCCN)NC(=O)[C@H](CO)NC(=O)[C@H](CC(=O)O)NC(=O)[C@@H]3CSSC[C@H](NC(=O)[C@H](CCCNC(=N)N)NC(=O)[C@H](CC(C)C)NC(=O)CNC(=O)[C@H](CCC(=O)O)NC(=O)[C@H](CSSC[C@H](NC(=O)[C@@H](N)Cc4ccc(O)cc4)C(=O)N[C@@H](CCC(N)=O)C(=O)N[C@@H](CCCCN)C(=O)N[C@@H](Cc4c[nH]c5ccccc45)C(=O)N[C@@H](CCSC)C(=O)N[C@@H](Cc4c[nH]c5ccccc45)C(=O)N[C@@H]([C@@H](C)O)C(=O)N3)NC2=O)C(=O)N[C@@H](CCCCN)C(=O)N[C@@H](CC(C)C)C(=O)N[C@@H](Cc2c[nH]c3ccccc23)C(=O)N1)C(N)=O [compound 88] | 0.014 | 1.5 | 0.11 | 8 | 0.05
4 | CC[C@H](C)[C@H](NC(=O)[C@@H](NC(=O)[C@H](CCCCN)NC(=O)[C@H](CCCNC(=N)N)NC(=O)[C@@H]1CSSC[C@@H]2NC(=O)[C@H](C)NC(=O)[C@H](C)NC(=O)[C@H](CCCCN)NC(=O)[C@H](CO)NC(=O)[C@H](CC(=O)O)NC(=O)[C@@H]3CSSC[C@H](NC(=O)[C@H](CCCNC(=N)N)NC(=O)[C@H](CC(C)C)NC(=O)CNC(=O)[C@H](CCC(=O)O)NC(=O)[C@H](CSSC[C@H](NC(=O)[C@@H](N)Cc4ccc(O)cc4)C(=O)N[C@@H](CCC(N)=O)C(=O)N[C@@H](CCCCN)C(=O)N[C@@H](Cc4c[nH]c5ccccc45)C(=O)N[C@@H](CCSC)C(=O)N[C@@H](Cc4c[nH]c5ccccc45)C(=O)N[C@@H]([C@@H](C)O)C(=O)N3)NC2=O)C(=O)N[C@@H](CCCCN)C(=O)N[C@@H](CC(C)C)C(=O)N[C@@H](Cc2c[nH]c3ccccc23)C(=O)N1)[C@@H](C)CC)C(N)=O [compound 13] | 0.079 | > 5 | 0.57 | 7 | 0.3
5 | CC[C@H](C)[C@H](NC(=O)[C@@H](NC(=O)[C@H](CCCCN)NC(=O)[C@H](CCCNC(=N)N)NC(=O)[C@@H]1CSSC[C@@H]2NC(=O)[C@H](C)NC(=O)[C@H](CCCNC(=N)N)NC(=O)[C@H](CCCCN)NC(=O)[C@H](CO)NC(=O)[C@H](CC(=O)O)NC(=O)[C@@H]3CSSC[C@H](NC(=O)[C@H](CCCNC(=N)N)NC(=O)[C@H](CC(C)C)NC(=O)CNC(=O)[C@H](CCC(=O)O)NC(=O)[C@H](CSSC[C@H](NC(=O)[C@@H](N)Cc4ccc(O)cc4)C(=O)N[C@@H](CCC(N)=O)C(=O)N[C@@H](CCCCN)C(=O)N[C@@H](Cc4c[nH]c5ccccc45)C(=O)N[C@@H](CCSC)C(=O)N[C@@H](Cc4c[nH]c5ccccc45)C(=O)N[C@@H]([C@@H](C)O)C(=O)N3)NC2=O)C(=O)N[C@@H](CCCCN)C(=O)N[C@@H](CC(C)C)C(=O)N[C@@H](CCCNC(=N)N)C(=O)N1)[C@@H](C)CC)C(N)=O [compound 106] | 5 | > 5 | 2.5 | 1 | 4.8
6 | CC[C@H](C)[C@H](NC(=O)[C@@H](NC(=O)[C@H](CCCCN)NC(=O)[C@H](CCCNC(=N)N)NC(=O)[C@@H]1CSSC[C@@H]2NC(=O)[C@H](C)NC(=O)[C@H](CCCNC(=N)N)NC(=O)[C@H](CCCCN)NC(=O)[C@H](CO)NC(=O)[C@H](CC(=O)O)NC(=O)[C@@H]3CSSC[C@H](NC(=O)[C@H](CCCNC(=N)N)NC(=O)[C@H](CC(C)C)NC(=O)CNC(=O)[C@H](CCC(=O)O)NC(=O)[C@H](CSSC[C@H](NC(=O)[C@@H](N)Cc4ccc(O)cc4)C(=O)N[C@@H](CCC(N)=O)C(=O)N[C@@H](CCCCN)C(=O)N[C@@H](Cc4c[nH]c5ccccc45)C(=O)N[C@@H](CCSC)C(=O)N[C@@H](Cc4c[nH]c5ccccc45)C(=O)N[C@@H]([C@@H](C)O)C(=O)N3)NC2=O)C(=O)N[C@@H](CCCCN)C(=O)N[C@@H](C)C(=O)N[C@@H](Cc2c[nH]c3ccccc23)C(=O)N1)[C@@H](C)CC)C(N)=O [compound 19] | 0.3 | > 5 | 0.34 | 1 | 0.44
7 | CC[C@H](C)[C@H](NC(=O)[C@@H](NC(=O)[C@H](CCCCN)NC(=O)[C@H](CCCNC(=N)N)NC(=O)[C@@H]1CSSC[C@@H]2NC(=O)[C@H](C)NC(=O)[C@H](CCCNC(=N)N)NC(=O)[C@H](CCCCN)NC(=O)[C@H](C)NC(=O)[C@H](CC(=O)O)NC(=O)[C@@H]3CSSC[C@H](NC(=O)[C@H](CCCNC(=N)N)NC(=O)[C@H](CC(C)C)NC(=O)CNC(=O)[C@H](CCC(=O)O)NC(=O)[C@H](CSSC[C@H](NC(=O)[C@@H](N)Cc4ccc(O)cc4)C(=O)N[C@@H](CCC(N)=O)C(=O)N[C@@H](CCCCN)C(=O)N[C@@H](Cc4c[nH]c5ccccc45)C(=O)N[C@@H](CCSC)C(=O)N[C@@H](Cc4c[nH]c5ccccc45)C(=O)N[C@@H]([C@@H](C)O)C(=O)N3)NC2=O)C(=O)N[C@@H](CCCCN)C(=O)N[C@@H](CC(C)C)C(=O)N[C@@H](Cc2c[nH]c3ccccc23)C(=O)N1)[C@@H](C)CC)C(N)=O [compound 11] | 0.012 | 3.6 | 0.16 | 13 | 0.14
